Experimental data taken from the NIST ThermoML archive (doi:10.1021/acs.jced.6b00460).

Test: xn = mol fraction of the nth substance listed
Conditions: 101 kPa, Liquid; for speed of sound: Sing-around technique in a fixed-path interferometer; for mass density: Vibrating tube method

CCCCCC[n+]1ccc(C)cc1.[Br-] [1-hexyl-4-methylpyridinium bromide] + O
Conditions	mass density, 308.15 K [kg/m3]	mass density, 318.15 K [kg/m3]	speed of sound, 308.15 K [m/s]	speed of sound, 318.15 K [m/s]
x2 = 0.0528	1214.12	1207.39	1586.8	1557.9
x2 = 0.1126	1213.44	1206.62	1583.6	1557
x2 = 0.2082	1211.69	1204.8	1579.1	1555.2
x2 = 0.2609	1210.34	1203.43	1575.7	1554.2
x2 = 0.3062	1208.9	1202.01	1573.2	1553.2
x2 = 0.4101	1204.56	1197.72	1568.4	1551.7
x2 = 0.4609	1201.71	1194.91	1565.3	1550.7
x2 = 0.5077	1198.65	1191.88	1563	1549.8
x2 = 0.6089	1189.79	1183.07	1557.2	1547.7
x2 = 0.6539	1184.57	1177.87	1553.3	1546
x2 = 0.7029	1177.58	1170.89	1547.7	1544.7
x2 = 0.7484	1169.44	1162.78	1542.9	1543.5
x2 = 0.8066	1155.56	1148.97	1537.6	1542
x2 = 0.8545	1139.33	1132.88	1533.7	1540.5
x2 = 0.9066	1112.82	1106.74	1529.4	1539.1
x2 = 0.9502	1076.22	1070.75	1524.9	1537.8

CCCCCC[n+]1ccccc1.[Br-] [1-hexylpyridinium bromide] + O
Conditions	mass density, 308.15 K [kg/m3]	mass density, 318.15 K [kg/m3]	speed of sound, 308.15 K [m/s]	speed of sound, 318.15 K [m/s]
x2 = 0.0609	1235	1228.39	1589.8	1556.2
x2 = 0.1184	1234.11	1227.43	1587.3	1555.1
x2 = 0.2091	1232.19	1225.43	1583.4	1553.2
x2 = 0.2544	1230.93	1224.15	1580.7	1552.2
x2 = 0.3097	1229.05	1222.25	1578.7	1551.4
x2 = 0.414	1224.2	1217.39	1574.6	1550
x2 = 0.4533	1221.81	1215.01	1572.9	1549.3
x2 = 0.5028	1218.26	1211.46	1571.8	1548.7
x2 = 0.5928	1209.73	1202.97	1570.1	1547.5
x2 = 0.6486	1202.64	1195.91	1565.9	1547.1
x2 = 0.7138	1191.79	1185.1	1561.6	1546.5
x2 = 0.7554	1182.79	1176.19	1557.1	1545.7
x2 = 0.7995	1170.69	1164.19	1551.1	1545
x2 = 0.8534	1150.45	1144.16	1543.3	1543.3
x2 = 0.9011	1124.03	1118.08	1535.9	1541.3
x2 = 0.9511	1079.2	1073.95	1528.1	1539.1

CCCCCC[n+]1ccccc1.[Cl-] [1-hexylpyridinium chloride] + O
Conditions	mass density, 308.15 K [kg/m3]	mass density, 318.15 K [kg/m3]	speed of sound, 308.15 K [m/s]	speed of sound, 318.15 K [m/s]
x2 = 0.0598	1146.46	1142.37	1569.2	1548.7
x2 = 0.1085	1146.26	1142.04	1567.4	1548.1
x2 = 0.2068	1145.6	1141.23	1564.8	1547.2
x2 = 0.2492	1145.16	1140.76	1563.9	1546.6
x2 = 0.3024	1144.44	1140.03	1562.9	1546
x2 = 0.4166	1142.05	1137.61	1560.3	1544.8
x2 = 0.4568	1140.82	1136.36	1559.6	1544.1
x2 = 0.5065	1138.92	1134.43	1557.6	1543.4
x2 = 0.6137	1132.92	1128.25	1553.2	1542
x2 = 0.6533	1129.75	1124.99	1550.8	1541.4
x2 = 0.709	1124.03	1119.08	1547.4	1540.6
x2 = 0.7521	1118.2	1113.12	1542.8	1540
x2 = 0.7936	1110.94	1105.73	1539.5	1539.4
x2 = 0.8561	1095.34	1090.02	1534	1538.6
x2 = 0.8966	1080.31	1074.99	1529.9	1538.2
x2 = 0.9528	1046.95	1042	1524.5	1537.2

CCCCCCCC[n+]1ccccc1.[Br-] [1-octylpyridinium bromide] + O
Conditions	mass density, 308.15 K [kg/m3]	mass density, 318.15 K [kg/m3]	speed of sound, 308.15 K [m/s]	speed of sound, 318.15 K [m/s]
x2 = 0.0524	1167.92	1161.5	1507.5	1479.5
x2 = 0.1125	1167.75	1161.26	1508.2	1481.4
x2 = 0.2085	1167.44	1160.87	1509.1	1483.4
x2 = 0.2612	1167.11	1160.51	1509.6	1485
x2 = 0.3065	1166.66	1160.04	1510.1	1486.3
x2 = 0.4098	1164.79	1158.11	1511.2	1489.1
x2 = 0.4611	1163.24	1156.52	1511.8	1490.4
x2 = 0.5075	1161.35	1154.59	1512.2	1492
x2 = 0.6091	1155.07	1148.2	1513.8	1494.8
x2 = 0.6541	1151.03	1144.1	1514.5	1497.2
x2 = 0.7031	1145.4	1138.43	1515.1	1502.2
x2 = 0.7485	1138.7	1131.69	1516	1506.7
x2 = 0.8065	1127.15	1120.15	1516.8	1512.5
x2 = 0.8545	1113.64	1106.77	1517.5	1518
x2 = 0.9065	1091.9	1085.37	1518.2	1523.5
x2 = 0.9503	1062.05	1056.24	1518.8	1529.3

CCCCCCCC[n+]1ccc(C)cc1.[Cl-] [4-methyl-1-octylpyridinium chloride] + O
Conditions	mass density, 308.15 K [kg/m3]	mass density, 318.15 K [kg/m3]	speed of sound, 308.15 K [m/s]	speed of sound, 318.15 K [m/s]
x2 = 0.0612	1107.62	1101.69	1448.6	1417.4
x2 = 0.1098	1107.56	1101.55	1452	1421.5
x2 = 0.2054	1107.52	1101.39	1457.5	1430.4
x2 = 0.2476	1107.46	1101.31	1459.9	1435.3
x2 = 0.3088	1107.3	1101.1	1463.2	1439.9
x2 = 0.4187	1106.44	1100.18	1468.7	1451.7
x2 = 0.4521	1105.97	1099.68	1472.2	1454.6
x2 = 0.5065	1104.89	1098.57	1475.1	1461.8
x2 = 0.6021	1101.75	1095.32	1483.4	1475
x2 = 0.6532	1099.16	1092.65	1487.9	1482.3
x2 = 0.7042	1095.66	1089.07	1492.5	1490.3
x2 = 0.7565	1090.74	1084.09	1497.2	1498.6
x2 = 0.8029	1084.75	1078.06	1501.7	1506.7
x2 = 0.8577	1074.57	1067.97	1505.2	1513.6
x2 = 0.9035	1061.61	1055.25	1510.4	1521.1
x2 = 0.9511	1039.58	1033.92	1514.3	1528.4
